The target of data set [1] is Human immunodeficiency virus type 1 reverse transcriptase (Human immunodeficiency virus 1) (UniProt Q72547). The experiment in a line: Inhibition of recombinant HIV-1 reverse transcriptase-associated RNase H activity using [3H]-labeled RNA as substrate at 10 uM after 10 mins relative to control.
In data set [2] the target is Human immunodeficiency virus type 1 integrase (Human immunodeficiency virus 1, UniProt Q7ZJM1). As to the kind of experiment: Inhibition of HIV-1 overall integrase activity using 5'-digoxigenin-labeled GACCCTTTTAGTCAGTGTGGAAAATCTCTAGCAGT-3' as substrate after 1 hr by ELISA.
Another data set is described as follows: in vitro. The note with it: human, MT4 cells infected with HIV-1 3B.
In data set [3] the test system is Human immunodeficiency virus 1. The experiment in a line: Antiviral activity against HIV-1 3B infected in human MT4 cells assessed as protection against virus-induced cytopathic effect by MTT assay. In kind it is functional, organism-based. The following applies: Human immunodeficiency virus 1, 3B.
The nature of data set [4]: Cytotoxicity against human MT4 cells infected with HIV-1 3B assessed as reduction in cell viability by MTT assay. In kind it is cell-based.
Data set [5] relates to Human immunodeficiency virus 1. The experiment in a line: Antiviral activity against HIV-1 3B infected in human MT4 cells assessed as inhibition of p24 antigen production by measuring time delay in loss of compound activity at 50 to 100 times EC50 by ELISA. In kind it is functional.
In data set [6] the test system is Human immunodeficiency virus 1. The experiment in a line: Resistance ratio of EC50 for raltegravir-resistant HIV1 harboring integrase Q148H mutant to EC50 for wild type HIV1. In kind it is functional.
In data set [7] the test system is Human immunodeficiency virus 1. As to the kind of experiment: Resistance ratio of EC50 for raltegravir-resistant HIV1 harboring integrase N155H mutant to EC50 for wild type HIV1. In kind it is functional.
A short description of data set [8]: n-octanol-PBS partition coefficient, log D of the compound at pH 7.4. In kind it is physicochemical.
Data set [9] deals with Human immunodeficiency virus 1. The experiment in a line: Resistance ratio of EC50 for raltegravir-resistant HIV1 harboring integrase E92Q mutant to EC50 for wild type HIV1. In kind it is functional.
Data set [10] relates to Human immunodeficiency virus 1. The experiment in a line: Resistance ratio of EC50 for raltegravir-resistant HIV1 harboring integrase G140S/Q148H double mutant to EC50 for wild type HIV1. In kind it is functional.
Data set [11] relates to Human immunodeficiency virus 1. The experiment in a line: Antiviral activity against HIV-1 3B infected in human MT4 cells assessed as inhibition of p24 antigen production at 50 to 100 times EC50 treated for 1 to 25 hrs measured at 30 hrs by ELISA. In kind it is functional, organism-based.
For data set [12], the target named is Human immunodeficiency virus type 1 reverse transcriptase (Human immunodeficiency virus 1, UniProt Q72547). The experiment in a line: Inhibition of recombinant HIV-1 reverse transcriptase-associated RNase H activity using [3H]-labeled RNA as substrate after 10 mins.

Calls of active or inactive are those of the source. The calls are words filed in the database; no cut-off is given here. A value given as a limit tells only on which side of the number the result lay.

Description for in vitro: Therapeutic index, ratio of CC50 for human MT4 cells infected with HIV-1 3B to EC50 for HIV-1 3B infected in human MT4 cells

As for `O=C(NCc1ccc(F)cc1)c1c(O)n(O)c(=O)c2ccc([N+](=O)[O-])cc12`, in data set [1], the inhibition came to 48.2%. This compound came in with an IC50 in data set [2] of 0.03 µM. Besides, the selectivity ratio in the data set “in vitro” is greater than 463. In [3], the EC50 stood at 0.27 µM. In [4], the CC50 was greater than 125 µM.
Take `CCCCCCNC(=O)c1c(O)n(O)c(=O)c2cc([N+](=O)[O-])ccc12`: the inhibition in data set [1] stood at 49%. Further, in data set [2], the IC50 came to 0.06 µM. Moreover, the selectivity ratio in “in vitro” is greater than 59. In [3], the EC50 was determined as 4.21 µM. In addition, in data set [4], the CC50 was greater than 250 µM.
`O=C(Nc1ccc2c(c1)C(=O)N(O)C(=O)C2C(=O)NCc1ccc(F)cc1)c1ccccn1` (stereo not drawn) yielded an IC50 in data set [2] of 0.16 µM. Also, the EC50 in data set [3] is greater than 1.2 µM. In addition, the CC50 in data set [4] was determined as 1 µM.
As to `CC(=O)Nc1ccc2c(c1)C(=O)N(O)C(=O)C2C(=O)NCc1ccc(F)cc1` (stereo not drawn), the inhibition in [1] is 25.2%. In addition, in data set [2], the IC50 was found to be 0.1 µM. Besides, in the data set “in vitro”, the selectivity ratio was 5. The EC50 in [3] came to 29.3 µM. Further, in [4], the CC50 was found to be 149 µM.
On to `COc1ccc(CNC(=O)c2c(O)n(O)c(=O)c3cc([N+](=O)[O-])ccc23)cc1`, for which the inhibition in data set [1] came out at 67.2%. In [2], inhibition was half-maximal at 0.01 µM (IC50). Moreover, the selectivity ratio in the data set “in vitro” was greater than 84. In data set [3], the EC50 is 2.97 µM. Moreover, the CC50 in data set [4] was greater than 250 µM.
As to `O=C(Nc1ccc2c(c1)C(=O)N(O)C(=O)C2C(=O)NCc1ccc(F)cc1)c1ccccc1` (stereo not drawn), in [1], the inhibition came out at 41.2%. The concentration for half-maximal inhibition (IC50) in data set [2] turned out to be 0.08 µM. The EC50 in [3] is greater than 21 µM. Also, in data set [4], the CC50 amounted to 21 µM.
As to `O=C(NCc1ccccc1)c1c(O)n(O)c(=O)c2cc([N+](=O)[O-])ccc12`, the inhibition in data set [1] worked out at 69.1%. Further, the IC50 in data set [2] was found to be 0.01 µM. For the same compound, the selectivity ratio in the data set “in vitro” came to 564. For the same compound, the concentration giving a half-maximal response (EC50) in [3] was found to be 0.21 µM. Further, the CC50 in data set [4] stood at 118 µM.
With `O=C(NCc1ccc(F)cc1)C1C(=O)N(O)C(=O)c2cc(Cl)ccc21` (stereo not drawn), the inhibition in [1] was 26.3%. This compound came in with a half-inhibitory concentration (IC50) in data set [2] of 0.14 µM. The EC50 in data set [3] was determined as 4.19 µM. In addition, in [4], the CC50 amounted to 106 µM.
Turning to `O=C(NCCc1ccc(F)cc1)c1c(O)n(O)c(=O)c2cc([N+](=O)[O-])ccc12`, the IC50 in data set [2] turned out to be 0.06 µM. Moreover, the selectivity ratio in “in vitro” is greater than 262. Also, the EC50 in [3] was 0.95 µM. Also, the CC50 in [4] was greater than 250 µM.
Compound `N#Cc1ccc2c(C(=O)NCc3ccc(F)cc3)c(O)n(O)c(=O)c2c1` had an IC50 in [2] of 0.07 µM. Also, in “in vitro”, the selectivity ratio was greater than 187. Moreover, the EC50 in [3] turned out to be 0.67 µM. The CC50 in data set [4] was greater than 125 µM.
As to `O=C(NCc1ccc(F)cc1)C1C(=O)N(O)C(=O)c2cc(F)ccc21` (stereo not drawn), in data set [1], the inhibition was 21.9%. For the same compound, the IC50 in [2] worked out at 0.24 µM. Further, in “in vitro”, the selectivity ratio came to 162. Besides, the EC50 in data set [3] was found to be 0.73 µM. In data set [4], the CC50 stood at 116 µM.
Consider `Cc1cn([C@H]2C[C@H](N=[N+]=[N-])[C@@H](CO)O2)c(=O)[nH]c1=O` [ZIDOVUDINE], for which the Time in data set [5] was found to be 4 h.
Consider `O=C(Nc1ccccc1)c1c(O)n(O)c(=O)c2cc([N+](=O)[O-])ccc12`, for which, in data set [1], the inhibition turned out to be 60%. Also, the IC50 in data set [2] was 0.01 µM. For the same compound, in “in vitro”, the selectivity ratio amounted to 679. Moreover, in [3], the EC50 came out at 0.17 µM. Moreover, the CC50 in data set [4] is 115 µM.
Regarding `O=C(Cc1cccs1)Nc1ccc2c(c1)C(=O)N(O)C(=O)C2C(=O)NCc1ccc(F)cc1` (stereo not drawn), the inhibition in data set [1] came to 28.9%. Further, in [2], the IC50 stood at 0.06 µM. Besides, in [3], the EC50 is greater than 41 µM. Also, the half-maximal cytotoxic concentration (CC50) in [4] is 41 µM.
Regarding `CC(C)c1nc(CN(C)C(=O)N[C@H](C(=O)N[C@@H](Cc2ccccc2)C[C@H](O)[C@H](Cc2ccccc2)NC(=O)OCc2cncs2)C(C)C)cs1` [RITONAVIR], the Time in data set [5] amounted to 25 h.
With `Cc1nnc(C(=O)NC(C)(C)c2nc(C(=O)NCc3ccc(F)cc3)c(O)c(=O)n2C)o1`, in [4], the 50% cytotoxic concentration (CC50) is greater than 8 µM.
As for `O=C(NCc1ccc(F)cc1)C1C(=O)N(O)C(=O)c2c(F)cccc21` (stereo not drawn), the inhibition in data set [1] turned out to be 31.6%. For the same compound, the midpoint of inhibition in data set [2], the IC50, lay at 0.88 µM. Moreover, the selectivity ratio in the data set “in vitro” was determined as 33. Besides, the EC50 in data set [3] was found to be 4.46 µM. Further, the CC50 in data set [4] turned out to be 149 µM.
Regarding `Nc1ccc2c(c1)C(=O)N(O)C(=O)C2C(=O)NCc1ccc(F)cc1` (stereo not drawn), in data set [1], the inhibition was 29.4%. This compound yielded an IC50 in [2] of 0.11 µM. Moreover, the selectivity ratio in the data set “in vitro” was 10. Besides, the EC50 in data set [3] was 23.3 µM. Besides, the CC50 in data set [4] was 253 µM.
On to `O=C(Cc1ccccc1)Nc1ccc2c(c1)C(=O)N(O)C(=O)C2C(=O)NCc1ccc(F)cc1` (stereo not drawn), for which the inhibition in [1] came out at 46.4%. The half-inhibitory concentration (IC50) in data set [2] was found to be 0.23 µM. The EC50 in data set [3] was greater than 31 µM. Further, the CC50 in data set [4] was 31 µM.
`O=C(Nc1ccc(F)cc1)c1c(O)n(O)c(=O)c2cc([N+](=O)[O-])ccc12` registered an IC50 in data set [2] of 0.03 µM. In “in vitro”, the selectivity ratio is 981. Further, in [3], the EC50 stood at 0.19 µM. In addition, in data set [4], the cytotoxic concentration (CC50) came to 186 µM.
As for `O=C(NCc1ccc(F)cc1)C1C(=O)N(O)C(=O)c2ccc(F)cc21` (stereo not drawn), in [1], the inhibition amounted to 24.5%. The compound further yielded an IC50 in [2] of 0.24 µM. Also, in the data set “in vitro”, the selectivity ratio worked out at 39. Further, the EC50 in data set [3] stood at 3.16 µM. Also, in data set [4], the cytotoxic concentration (CC50) came to 123 µM.
In the same order, the values of `O=C(NCc1ccc(F)cc1)C1C(=O)N(O)C(=O)c2cc(Br)ccc21` (stereo not drawn) are 38.7%, 0.06 µM, 33, 2.99 µM and 99.5 µM.
As to `O=C(NCc1ccc(F)cc1)C1C(=O)N(O)C(=O)c2cc(C(F)(F)F)ccc21` (stereo not drawn), the inhibition in data set [1] is 25.5%. In [2], this compound registered an IC50 of 0.02 µM. Further, the selectivity ratio in “in vitro” was greater than 94. The EC50 in data set [3] is 0.6 µM. For the same compound, the CC50 in [4] is greater than 56 µM.
For `COc1ccc2c(c1)C(=O)N(O)C(=O)C2C(=O)NCc1ccc(F)cc1` (stereo not drawn), in that order: 15.5%, 0.26 µM, 3, 6.5 µM and 21 µM.
As to `O=C(NCc1ccc(F)cc1)c1c(O)n(O)c(=O)c2ccccc12`, the “Ratio EC50” value in data set [6], in data set [7], in [9] and in [10] was 1 each time. Also, the logD in data set [8] was 0.56. The inhibition result in data set [11] was “Active”.
With `O=C(NCc1ccc(F)cc1)c1c(O)n(O)c(=O)c2cc([N+](=O)[O-])ccc12`, the inhibition in data set [1] turned out to be 78.7%. In addition, the 50% inhibitory concentration (IC50) was 0.01 µM in data set [2] and 4.8 µM in [12].

(Values after ChEMBL document CHEMBL3286274, “Investigation of a novel series of 2-hydroxyisoquinoline-1,3(2H,4H)-diones as human immunodeficiency virus type 1 integrase inhibitors” (J Med Chem, 2014).)
